Experimental data published in patent US10517889B2, “Modulators of SMAD7 expression” (Ionis Pharmaceuticals, Inc., priority 2017, dated 2019).
Strand notation (5' to 3'): a small letter for the sugar, then the base; units joined by * are phosphorothioate-linked, units joined directly phosphodiester-linked; [ ] holds rarer units or linkages, { } end groups; capitals alone tell only the bases. e = 2'-O-(2-methoxyethyl) (MOE); [5mC] = 5-methylcytosine; d = 2'-deoxy (DNA)

system: human SMAD7 mRNA; assay: Antisense inhibition of human SMAD7 mRNA expression in Hep3B cells by 5-10-5 MOE gapmers, single concentration, electroporation, RT-PCR (Example 1, Study 1 and 2); type: cell-based; conditions: Study 2, electroporation with 15,000 nM antisense oligonucleotide, 5-10-5 MOE gapmers targeting SEQ ID NO: 1 and 2
Experimental: Antisense oligonucleotides were designed to target human SMAD7 mRNA and were tested for their effects on SMAD7 mRNA expression in vitro. Cultured Hep3B cells at a density of 20,000 cells per well were transfected using electroporation with antisense oligonucleotide ION 483663 (a 5-10-5 MOE gapmer), the sequence of which overlaps with ION 28453 (a 4-10-4 MOE gapmer) was included in these assays for comparison. ION 28453 has been previously disclosed in U.S. Pat. No. 6,159,697). After a treatment period of approximately 24 hours, RNA was isolated from the cells and SMAD7 mRNA levels were measured by quantitative real-time PCR. Primer probe set RTS5062 (forward sequence […], designated herein as SEQ ID NO: 11; reverse sequence […], designated herein as SEQ ID NO: 12; probe sequence […], designated herein as SEQ ID NO: 13) was used to measure human SMAD7 mRNA levels. SMAD7 mRNA levels were adjusted according to total RNA content, as measured by RIBOGREEN®. Results are presented as percent inhibition of SMAD7 mRNA expression, relative to untreated control cells.
The newly designed chimeric antisense oligonucleotides in the Tables below were designed as 5-10-5 MOE gapmers. The gapmers are 20 nucleosides in length, wherein the central gap segment comprises of ten 2′-deoxynucleosides and is flanked by wing segments on the 5′ direction and the 3′ direction comprising five nucleosides each. Each nucleoside in the 5′ wing segment and each nucleoside in the 3′ wing segment has a 2′-MOE modification. The internucleoside linkages throughout each gapmer are phosphorothioate (P═S) linkages. All cytosine residues throughout each gapmer are 5-methylcytosines.
“Start site” indicates the 5′-most nucleoside to which the gapmer is targeted in the human gene sequence. “Stop site” indicates the 3′-most nucleoside to which the gapmer is targeted human gene sequence.
Cultured Hep3B cells at a density of 20,000 cells per well were transfected using electroporation with 5,000 nM antisense oligonucleotide.
Cultured Hep3B cells at a density of 20,000 cells per well were transfected using electroporation with 15,000 nM antisense oligonucleotide. The antisense oligonucleotides were tested in a series of experiments that had similar culture conditions as described below.
Some of the oligonucleotides presented were complementary to SMAD7 mRNA sequences RefSeqNo. NM_001190821.1 (designated herein as SEQ ID NO: 3) or RefSeqNo. NM_001190822.1 (designated herein as SEQ ID NO: 4), and are presented in a separate table shown below.

Substance | % Inhibition | % inhibition of SMAD7 mRNA expression
771807 (antisense eG*e[5mC]*e[5mC]*e[5mC]*eT*d[5mC]*dA*d[5mC]*dT*d[5mC]*d[5mC]*dA*d[5mC]*dA*dA*eT*eG*eG*e[5mC]*eA) [compound 771807] | 51% | 
771382 (antisense eA*eA*eA*eT*eA*dA*dA*dA*dA*d[5mC]*dA*d[5mC]*d[5mC]*dA*dA*eG*eA*eT*e[5mC]*e[5mC]) [compound 771382] | 0% | 
771684 (antisense eA*eT*eT*eT*eG*dG*d[5mC]*dA*dT*dT*dT*dG*dT*dT*dA*eT*eT*eT*eG*e[5mC]) [compound 771684] |  | 0%
771398 (antisense eG*eG*e[5mC]*eA*eG*dG*dA*dG*d[5mC]*dG*dG*d[5mC]*dG*dG*d[5mC]*eG*eG*e[5mC]*e[5mC]*e[5mC]) [compound 771398] | 48% | 
771472 (antisense eA*eT*eT*eT*eT*dG*d[5mC]*dT*d[5mC]*d[5mC]*dG*d[5mC]*dA*d[5mC]*d[5mC]*eT*eT*e[5mC]*eT*eG) [compound 771472] |  | 0%
771844 (antisense eG*eA*eA*eG*eG*dA*d[5mC]*d[5mC]*dA*dA*dG*dT*d[5mC]*d[5mC]*d[5mC]*eT*e[5mC]*eT*e[5mC]*e[5mC]) [compound 771844] | 0% | 
771798 (antisense eG*eA*e[5mC]*eA*e[5mC]*dA*dT*d[5mC]*d[5mC]*dA*dT*dG*dT*d[5mC]*d[5mC]*eA*eA*eG*e[5mC]*eA) [compound 771798] | 17% | 
771654 (antisense eA*eA*eA*e[5mC]*eA*dT*dG*d[5mC]*dT*d[5mC]*dA*dT*dT*dG*dA*eG*e[5mC]*eT*eA*eA) [compound 771654] |  | 32%
771652 (antisense eA*eT*eT*eG*eA*dG*d[5mC]*dT*dA*dA*dG*dA*dA*d[5mC]*dA*eG*eT*eG*eT*e[5mC]) [compound 771652] |  | 0%
771854 (antisense eT*e[5mC]*e[5mC]*e[5mC]*e[5mC]*dG*d[5mC]*d[5mC]*dT*dT*dT*dT*d[5mC]*dT*dT*e[5mC]*e[5mC]*eT*eG*eG) [compound 771854] | 9% | 
771558 (antisense eA*eA*eA*eT*eG*dA*dT*dG*dA*d[5mC]*d[5mC]*dG*d[5mC]*d[5mC]*d[5mC]*e[5mC]*e[5mC]*e[5mC]*eT*eT) [compound 771558] |  | 7%
771676 (antisense eT*eG*eT*eT*eT*dA*dT*dA*d[5mC]*dA*d[5mC]*dA*dT*dT*dG*e[5mC]*eA*e[5mC]*eA*eA) [compound 771676] |  | 2%
771393 (antisense eG*e[5mC]*eT*e[5mC]*e[5mC]*dG*dG*d[5mC]*dT*dG*d[5mC]*d[5mC]*d[5mC]*d[5mC]*dA*e[5mC]*e[5mC]*e[5mC]*e[5mC]*eG) [compound 771393] | 0% | 
771480 (antisense eA*eG*e[5mC]*e[5mC]*eT*dT*dG*dA*dT*dG*dG*dA*dG*dA*dA*eA*e[5mC]*e[5mC]*eG*eG) [compound 771480] |  | 46%
771791 (antisense eG*eA*eG*eG*eA*dG*dG*dG*dA*dG*dA*dA*dA*d[5mC]*dT*e[5mC]*e[5mC]*eT*e[5mC]*eA) [compound 771791] | 22% | 
771932 (antisense e[5mC]*eG*eA*eG*eG*dT*dG*d[5mC]*d[5mC]*d[5mC]*d[5mC]*d[5mC]*dA*dT*dG*e[5mC]*e[5mC]*eA*eG*eG) [compound 771932] | 13% | 
582468 (antisense eG*e[5mC]*e[5mC]*eA*eA*dT*dA*dT*d[5mC]*dA*dT*dA*dA*d[5mC]*d[5mC]*e[5mC]*eA*eA*eG*e[5mC]) [compound 582468] |  | 4%
771942 (antisense eG*eT*e[5mC]*eG*eG*dT*d[5mC]*dA*dG*dG*dG*d[5mC]*d[5mC]*dT*dT*eG*e[5mC]*e[5mC]*e[5mC]*eT) [compound 771942] | 11% | 
771508 (antisense e[5mC]*e[5mC]*eT*eG*e[5mC]*dT*d[5mC]*dA*dG*d[5mC]*dT*d[5mC]*dA*d[5mC]*dG*e[5mC]*eT*e[5mC]*eT*eG) [compound 771508] |  | 8%

same assay, conditions: electroporation with 15,000 nM antisense oligonucleotide (Study 2), 5-10-5 MOE gapmers targeting SEQ ID NO: 1 and 2

Substance | % inhibition of SMAD7 mRNA expression | % Inhibition of SMAD7 mRNA
771681 (antisense eT*eT*eT*eG*e[5mC]*dA*dT*dT*dT*dA*dT*dA*dT*dT*dA*eA*eA*eG*e[5mC]*eA) [compound 771681] | 0% | 
771608 (antisense e[5mC]*eT*eG*eG*eG*dT*dG*dA*dG*d[5mC]*dA*dA*dT*dA*d[5mC]*eT*eG*eT*eG*eA) [compound 771608] | 34% | 45%
771880 (antisense eT*e[5mC]*e[5mC]*e[5mC]*eT*dG*dG*dT*dT*dT*dT*dG*d[5mC]*dA*dG*eG*eT*eG*eG*eT) [compound 771880] |  | 41%
582468 (antisense eG*e[5mC]*e[5mC]*eA*eA*dT*dA*dT*d[5mC]*dA*dT*dA*dA*d[5mC]*d[5mC]*e[5mC]*eA*eA*eG*e[5mC]) [compound 582468] | 0% | 

same assay, conditions: electroporation, 5,000 nM, approximately 24 hours, relative to untreated control cells, gapmers targeting SEQ ID NO: 1 and 2

Substance | % inhibition of SMAD7 mRNA expression
771382 (antisense eA*eA*eA*eT*eA*dA*dA*dA*dA*d[5mC]*dA*d[5mC]*d[5mC]*dA*dA*eG*eA*eT*e[5mC]*e[5mC]) [compound 771382] | 55%
771398 (antisense eG*eG*e[5mC]*eA*eG*dG*dA*dG*d[5mC]*dG*dG*d[5mC]*dG*dG*d[5mC]*eG*eG*e[5mC]*e[5mC]*e[5mC]) [compound 771398] | 53%

same assay, conditions: electroporation, 15,000 nM antisense oligonucleotide (Study 2), 5-10-5 MOE gapmers targeting SEQ ID NO: 1 and 2

Substance | % inhibition of SMAD7 mRNA expression
771410 (eG*e[5mC]*eT*e[5mC]*eG*d[5mC]*d[5mC]*dT*d[5mC]*d[5mC]*dT*d[5mC]*d[5mC]*dT*d[5mC]*e[5mC]*eA*e[5mC]*e[5mC]*eT; antisense) [compound 771410] | 37%
771442 (e[5mC]*eT*e[5mC]*eT*eT*dG*dA*d[5mC]*dT*dT*d[5mC]*d[5mC]*dG*dA*dG*eG*eA*eA*eT*eG; antisense) [compound 771442] | 22%
771365 (antisense eA*eT*eT*eA*eT*dT*dA*dA*dT*dG*dG*dT*d[5mC]*dT*dG*e[5mC]*eT*e[5mC]*eA*eG) [compound 771365] | 5%
771538 (antisense eT*eT*eT*e[5mC]*eT*d[5mC]*dA*dA*dA*dG*dA*dG*d[5mC]*dG*dA*eA*eA*e[5mC]*eA*eA) [compound 771538] | 24%
771833 (antisense eT*eT*eA*eA*eA*dG*dA*dA*dA*dA*dT*dG*dG*d[5mC]*d[5mC]*eT*eA*e[5mC]*eA*eT) [compound 771833] | 21%
771880 (antisense eT*e[5mC]*e[5mC]*e[5mC]*eT*dG*dG*dT*dT*dT*dT*dG*d[5mC]*dA*dG*eG*eT*eG*eG*eT) [compound 771880] | 29%
771434 (eG*e[5mC]*e[5mC]*eG*e[5mC]*dT*d[5mC]*d[5mC]*dT*dT*d[5mC]*dA*dG*dT*dT*eT*e[5mC]*eT*eT*eG; antisense) [compound 771434] | 27%
771898 (antisense eG*eG*eT*eG*eT*dG*dA*dG*d[5mC]*dT*dG*dT*dG*dG*dA*e[5mC]*eA*e[5mC]*eA*eG) [compound 771898] | 27%
771866 (antisense eG*e[5mC]*eA*eT*eT*dT*dT*dT*d[5mC]*dT*dG*dA*dA*d[5mC]*dA*eG*eA*eG*eT*e[5mC]) [compound 771866] | 34%
771601 (antisense eG*eA*eT*eG*eG*d[5mC]*d[5mC]*dA*dA*dA*dA*dA*dA*dG*dA*eA*eA*eG*eA*e[5mC]) [compound 771601] | 13%
771467 (antisense e[5mC]*eA*eT*eA*eG*dA*dA*dG*dA*dT*dA*dT*d[5mC]*d[5mC]*dA*eG*eA*eG*eA*eG) [compound 771467] | 11%

same assay, conditions: electroporation, 15,000 nM, approximately 24 hours, gapmers targeting SEQ ID NO: 3 and 4

Substance | % inhibition of SMAD7 mRNA expression
771344 (antisense eA*eT*e[5mC]*eT*eG*dG*dA*d[5mC]*dA*dG*dT*d[5mC]*dA*dG*dT*eT*eG*eG*eT*eT) [compound 771344] | 17%
771356 (antisense eT*e[5mC]*e[5mC]*eA*eG*dT*dT*d[5mC]*dG*dG*d[5mC]*d[5mC]*dT*dT*d[5mC]*e[5mC]*eA*eT*e[5mC]*e[5mC]) [compound 771356] | 40%

same assay, conditions: electroporation, 15,000 nM, approximately 24 hours, relative to untreated control cells, gapmers targeting SEQ ID NO: 1 and 2

Substance | % inhibition of SMAD7 mRNA expression
771909 (antisense e[5mC]*eA*eG*eG*e[5mC]*dT*d[5mC]*d[5mC]*d[5mC]*dT*dG*dT*dG*d[5mC]*d[5mC]*eA*eA*eT*e[5mC]*eA) [compound 771909] | 52%
771406 (antisense eG*eA*eG*e[5mC]*eG*dA*dA*d[5mC]*dA*dT*dG*dA*d[5mC]*d[5mC]*dT*e[5mC]*e[5mC]*eG*e[5mC]*eA) [compound 771406] | 55%
